Measurements as given in US5541174A, “Analgesic method” (priority 1995, dated 1996).
“And” between values parts separate entries of the source, which are not always exact repeats. Identical values can stand only once.

Experiments:
[1] = tested on: acetic acid-induced writhing mouse pain model; assay: Measurement of time of peak activity in the acetic acid-induced writhing mouse pain model; assay type: in vivo; conditions: for duration of analgesic effect: Table VII
Experimental: Groups of 10 ICR male mice (Taisho Pharmaceutical Co. Research Center) were used to study each dose of every compound. […] Number of writhes were counted for each mouse during a period of 10 to 20 min after acetic acid injection. Inhibitory percent was calculated by comparison with the number of writhes in the non-treated control, vehicle-treated, and acetic acid-injected group. The ED50 value and 95% confidence limits were calculated from the inhibitory percent by the method of Litchfield and Wilcoxon.
(§1) All drugs were suspended with 5% gum arabic in saline solution or wetted with enough propylene glycol to give a final concentration of 4% propylene glycol and the wetted solid suspended in 1.4% polyvinyl alcohol in saline.

[2] = tested on: acetic acid-induced writhing mouse pain model; assay: Naloxone reversal of analgesia in the acetic acid-induced writhing mouse pain model; assay type: in vivo; conditions: for reduction of induced analgesia by Naloxone: Table VIII; for ED50: p.o.
Experimental: (§2) Groups of 10 ICR male mice (Taisho Pharmaceutical Co. Research Center) were used to study each dose of every compound. Ligands or complexes were administered orally or subcutaneously in 0.1 ml of vehicle per 10 g of body weight 30 minutes before the intrapertioneal injection of 0.1 ml of 0.7% acetic acid solution per 10 g of body weight. Number of writhes were counted for each mouse during a period of 10 to 20 min after acetic acid injection. Inhibitory percent was calculated by comparison with the number of writhes in the non-treated control, vehicle-treated, and acetic acid-injected group. The ED50 value and 95% confidence limits were calculated from the inhibitory percent by the method of Litchfield and Wilcoxon.
as §1
NaloxoneHCL (3 umol/kg. i.v., in saline, Endo Lab.) was administered 5
min. before acetic acid injection.

[3] = tested on: acetic acid induced writhing in mice; assay: Acetic acid-induced writhing test; assay type: in vivo, ICR male mice
Experimental: 1. Acetic acid-induced writhing test as described in Koster et al., "Acetic Acid for Analgesic Screening", Fed. Proc. 18, 412 (1959), incorporated by reference herein; and
as §2

[4] = tested on: adjuvant-induced arthritic pain in rats; assay: Adjuvant-induced arthritic pain; assay type: in vivo, male Sprague-Dawley rats
Text: 2. Adjuvant-induced arthritic pain as described in:
S. KUZNA, et al., Measurement of Arthritic Pain and Effects of Analgesics in the Adjuvant-Treated Rat, Chem. Pharm. Bull. 23, 1184-1191 (1975);
C. A. WINTER, et al., Analgesic Activity of Diflunisal in Rats with Hyperalygesia Induced by Freud's Adjuvant, J. Pharmacol. Exp. Ther. 211, 678-685 (1979; and
M. E. ROSENTHALE, et al., Adjuvant Arthritis:Immuno-Pathological and Hyperalgesic Features, Fed. Proced. 41, 2577-2582 (1982),
incorporated by reference herein.
Groups of 5-6 male Sprague-Dawley rats (Taisho Pharmaceutical Co. Research Center) weighing 140 to 160 g at the time of Mycobacterium butyricum (adjuvant, Difco Laboratories, Detroit, Mich.) injection were used to study each compound. Rats were injected intradermally at the base of the tail with 0.1 ml of a parafin oil suspension of 0.5 mg of heat-killed mycobacterium. Fifteen to 19 days later, drugs were administered orally or subcutaneously in 0.5 ml of vehicle per 100 g of body weight to rats showing the nociceptive reaction, vocalization following a gentle flexion of the tarsal-tibial joint of the inflamed hind-paw. Vocalization responses were measured every hour for 5 hours. […] The ED50 value and 95% confidence limits were calculated from the positive rate for non-treated controls, vehicle-treated adjuvant arthritic rats, by the method of Litchfield and Wilcoxin.
as §1

[5] = tested on: acetic acid-induced writhing mouse pain model; assay: Comparison/potentiation of analgesic activity with morphine in the acetic acid-induced writhing mouse pain model; assay type: in vivo
Experimental: as §2

[6] = oral, 5% gum arabic, 0.006 mmol/kg
[7] = oral, 5% gum arabic, 0.013 mmol/kg

CCN(CC)C(=S)[S-].CCN(CC)C(=S)[S-].[Cu+2] [Cu(II)(DDC)2, Bisdiethyldithiocarbamatocopper(II)]
Inhibition % ([1]; 555 umol/kg s.c., 30 min): 29%
Inhibition % ([1]; 555 umol/kg s.c., 60 min): 42%
Inhibition % ([1]; 555 umol/kg s.c., 120 min): 45%
Inhibition % ([1]; 555 umol/kg s.c., 180 min): 29%
duration of analgesic effect [1]: prolonged duration of analgesic effect
% Inhibition ([2]; 555 umol/kg s.c., with Naloxone HCl 3 umol/kg i.v.): 29%
% Inhibition ([2]; 555 umol/kg s.c., without naloxone): 45%
reduction of induced analgesia by Naloxone [2]: reduction

CCN(CC)C(=S)[S-].[Na+] [NaDDC, sodium diethyldithiocarbamate, reference compound]
Inhibition % ([1]; 584 umol/kg s.c., 30 min): 48%
Inhibition % ([1]; 584 umol/kg s.c., 60 min): 53%
Inhibition % ([1]; 584 umol/kg s.c., 120 min): 20%
Inhibition % ([1]; 584 umol/kg s.c., 180 min): 18%

COc1ccc2c(c1)c(CC(=O)[O-])c(C)n2C(=O)c1ccc(Cl)cc1.COc1ccc2c(c1)c(CC(=O)[O-])c(C)n2C(=O)c1ccc(Cl)cc1.COc1ccc2c(c1)c(CC(=O)[O-])c(C)n2C(=O)c1ccc(Cl)cc1.COc1ccc2c(c1)c(CC(=O)[O-])c(C)n2C(=O)c1ccc(Cl)cc1.[Cu+2].[Cu+2] [Cu(II)2 (indomethacin)4]
ED50 ([3]; oral, 5% gum arabic in saline): 0.012 mmol/kg
analgesic effectiveness versus parent ligand ([3]; oral, 5% gum arabic in saline): more effective than their parent ligands
% Inhibition [3, 6]: 33%
% Inhibition [3, 7]: 50%
% Inhibition ([3]; oral, 5% gum arabic, 0.025 mmol/kg): 73%
analgesic effectiveness versus parent ligand ([3]; oral, PG-PVA): more effective than their parent ligands
ED50 ([3]; oral, PG-PVA in saline): 0.002 mmol/kg
% Inhibition ([3]; oral, PG-PVA, 0.001 mmol/kg): 38%
% Inhibition ([3]; oral, PG-PVA, 0.002 mmol/kg): 53%
% Inhibition ([3]; oral, PG-PVA, 0.004 mmol/kg): 75%
ED50 ([3]; s.c., PG-PVA in saline): 0.002 mmol/kg and 0.003 mmol/kg
% Inhibition ([3]; s.c., PG-PVA, 0.002 mmol/kg): 34%
% Inhibition ([3]; s.c., PG-PVA, 0.003 mmol/kg): 53%
% Inhibition ([3]; s.c., PG-PVA, 0.006 mmol/kg): 70%
ED50 ([4]; oral, 5% gum arabic in saline): 0.007 mmol/kg
% Inhibition ([4]; oral, 5% gum arabic, 0.003 mmol/kg): 27%
% Inhibition [4, 6]: 47%
% Inhibition [4, 7]: 70%
ED50 ([4]; oral, PG-PVA in saline): 0.002 mmol/kg
% Inhibition ([4]; oral, PG-PVA, 0.001 mmol/kg): 20%
% Inhibition ([4]; oral, PG-PVA, 0.002 mmol/kg): 40%
% Inhibition ([4]; oral, PG-PVA, 0.003 mmol/kg): 87%
ED50 ([4]; s.c., PG-PVA in saline): 0.002 mmol/kg
% Inhibition ([4]; s.c., PG-PVA, 0.001 mmol/kg): 17%
% Inhibition ([4]; s.c., PG-PVA, 0.002 mmol/kg): 43%
% Inhibition ([4]; s.c., PG-PVA, 0.003 mmol/kg): 60%
Inhibition % ([1]; 2 umol/kg p.o., 30 min): 54%
Inhibition % ([1]; 2 umol/kg p.o., 60 min): 49%
Inhibition % ([1]; 2 umol/kg p.o., 120 min): 43%
Inhibition % ([1]; 2 umol/kg p.o., 180 min): 68%
Inhibition % ([1]; 2 umol/kg p.o., 240 min): 33%
duration of analgesic effect [1]: prolonged duration of analgesic effect
% Inhibition ([2]; 0.5 umol/kg p.o., with Naloxone HCl 3 umol/kg i.v.): 19%
% Inhibition ([2]; 0.5 umol/kg p.o., without naloxone): 43%
% Inhibition ([2]; 1 umol/kg p.o., with Naloxone HCl 3 umol/kg i.v.): 52%
% Inhibition ([2]; 1 umol/kg p.o., without naloxone): 62%
% Inhibition ([2]; 2 umol/kg p.o., with Naloxone HCl 3 umol/kg i.v.): 69%
% Inhibition ([2]; 2 umol/kg p.o., without naloxone): 76%
reduction of induced analgesia by Naloxone [2]: reduction
ED50 ([2]; with Naloxone HCl 3 umol/kg i.v.): 1.1 µmol/kg
ED50 ([2]; without naloxone): 0.6 µmol/kg
% Inhibition ([5]; 0.5 umol/kg, orally): 21%
% Inhibition ([5]; 1.0 umol/kg, orally): 46%
% Inhibition ([5]; 2.0 umol/kg, orally): 54%
potentiation of opioid analgesia ([5]; Table IX): potentiation of opioid analgesia
ED50 ([5]; complex alone, orally): 1.5 µmol/kg

[Cl][Cu][Cl] [Cu(II)(chloride)2, reference compound]
ED50 ([3]; s.c., PG-PVA in saline): 0.60 mmol/kg
% Inhibition ([3]; s.c., PG-PVA, 0.56 mmol/kg): 48%
% Inhibition ([3]; s.c., PG-PVA, 1.12 mmol/kg): 69%
% Inhibition ([3]; s.c., PG-PVA, 2.24 mmol/kg): 83%
analgesic activity ([4]; doses statistically significantly analgesic in the writhing model): devoid of analgesic activity
ED50 ([4]; oral, PG-PVA in saline): > 2.24 mmol/kg
% Inhibition ([4]; oral, PG-PVA, 2.24 mmol/kg): 0%
ED50 ([4]; s.c., PG-PVA in saline): > 2.24 mmol/kg
% Inhibition ([4]; s.c., PG-PVA, 2.24 mmol/kg): 3%
